In patent US20070098826A1, “Use of pinitol or chiroinositol for protecting the liver” (AMICOGEN, INC., priority 2003, published 2007):

Key:
[1] = tested on: glutathione content of liver; assay: Content of glutathione in liver of streptozotocin diabetic rats; format: in vivo, Sprague-Dawley rats; settings: for Glutathione content as compared to the normal group / Glutathione content Relative value: 10 mg/kg; for Glutathione content (μ mole/g): 10 mg/kg oral everyday for 4 days, liver; for Glutathione content Relative value: normal group = 100
Experimental: In order to induce diabetes in rats, streptozotocin (Sigma Chemical Co., USA) dissolved in 0.01M citrate buffer solution (pH 4.5) was injected into the abdominal cavity of 8 week-old Sprague-Dawley rats in an amount of 45 mg/kg of rat body weight. […] The diabetic rats were divided into 3 groups, each of 12-15 rats, and pinitol or chiroinositol dissolved in 10 ml of water was orally administered to the rats of two groups (experimental groups 1 and 2) in an amount of 10 mg/kg of rat body weight everyday for 4 days. Rats of the normal group and control group (diabetic group) were each treated with 10 ml of distilled water. After fasting during 18 hours, the rats were anesthetized with ethyl ether, sacrificed, the liver was taken and washed with cold physiological saline. The glutathione content of the homogenized liver solution was measured according to the method of Ellman (Arch. Biochem. Biophy., 70-77 (1959)) and the result is shown in Table IV.

[2] = tested on: Liver Damaged by Carbon Tetrachloride; assay: Protective activity for the liver damaged by carbon tetrachloride (blood GOT and GPT); format: in vivo, Sprague-Dawley rats; settings: CCl4 rats; for GOT / GPT: blood on day 8; for GOT Inhibition (%) / GPT Inhibition (%): day 8
Experimental: The rats were divided into 8 groups and carbon tetrachloride was injected subcutaneously into the rats except the rats of the normal group in an amount of 0.5 ml/kg at 1st and 5th day. On day 2, pinitol or chiroinositol dissolved in 10 ml of water was orally administered to the rats of the experimental groups in an amount of 5-20 mg/kg of rat body weight. The normal and control groups were treated with 10 ml of distilled water instead of pinitol. On day 8, GOT and GPT concentrations in the blood sample taken from the orbital vein of each rat was measured by using blood analyzer (Vitros DT-60, Johnson & Johnson) and the result is shown in Table II. The degree of inhibition (%) was then calculated in accordance with the following equation: [formula]

[3] = tested on: serum GOT, GPT and γ-GTP levels; assay: Protective activity for liver in adults with elevated serum GOT or γ-GTP (serum GOT, GPT, γ-GTP); format: in vivo, human; settings: oral 600 mg daily for 2 months
Experimental: Pinitol was orally administered to adults (the average age: 51.8 years, man 7 and female 8) showing serum GOT or γ-GPT level higher than 50 IU/L at a daily dose of 600 mg for 2 months. Serum GOT, GPT and γ-GTP levels were determined before and after the administration.

[4] = tested on: SOD activity in liver; assay: Determination of SOD activity in liver of carbon tetrachloride treated rats; format: in vivo, Sprague-Dawley rats; settings: for SOD activity (U/g Liver): CCl4 i.p., liver 24 hours later; for SOD activity Relative Value (%): control group = 100
Experimental: The rats were divided into 7 groups and pinitol dissolved in 10 ml of water was orally administered to the rats of the experimental groups in an amount of 200-1000 mg/kg of rat body weight everyday for 4 days. The comparative group rats were treated with Silymarin (Sigma Chemical Co.) in an amount of 200 mg/kg, the normal and control groups were each treated with 10 ml of distilled water. On day 4, a mixture of carbon tetrachloride and soybean oil (1:1 (v/v)) was injected intraperitoneally into the rats except the rats of the normal group in an amount of 0.5 ml/kg, 90 minutes after the administration of pinitol. 24 hours thereafter, SOD activity of the liver taken out from each rat was measured according to the method of Neoot et al., (Methods Enzymol., 186: 209-219 (1993)) and tested by student t-test.

[5] = rats, oral, 5,000 mg/kg, day 14
Experimental: 6 week-old, specific pathogen-free Sprague-Dawley female rats (15 heads), each weighing about 130 to 147 g, and male rats (15 heads), each weighing about 110 to 123 g, were bred under the condition of 23±3° C., 55±15% relative humidity and 12 L/12 D photoperiod. Fodder (Harlan, U.S.A.) and water were sterilized and fed to the rats. The rats were acclimated for 1 week before the administration of pinitol.
Pinitol was dissolved in physiological saline and the solution was orally administered to each rat in an amount of 5,000 mg/kg of rat body weight. […] The weight changes of the rats were recorded at day 1, 3, 7 and 14 to examine the effect of pinitol. Further, on day 14, the rats were sacrificed and the internal organs were visually examined.

SMILES | Glutathione content as compared to the normal group [1] [%] | Glutathione content (μ mole/g) [1] [μ mole/g] | Glutathione content Relative value [1] | GOT ([2]; 5 mg/kg oral) [IU/L] | GPT ([2]; 5 mg/kg oral) [IU/L] | GOT Inhibition (%) ([2]; 5 mg/kg oral) | GPT Inhibition (%) ([2]; 5 mg/kg oral) | GOT ([2]; 10 mg/kg oral) [IU/L] | GPT ([2]; 10 mg/kg oral) [IU/L] | GOT Inhibition (%) ([2]; 10 mg/kg oral) | GPT Inhibition (%) ([2]; 10 mg/kg oral) | GOT ([2]; 20 mg/kg oral) [IU/L] | GPT ([2]; 20 mg/kg oral) [IU/L] | GOT Inhibition (%) ([2]; 20 mg/kg oral) | GPT Inhibition (%) ([2]; 20 mg/kg oral) | also measured
OC1C(O)C(O)C(O)C(O)C1O (centres unmarked) [chiroinositol] | 85 | 14.52 ± 0.57 | 85.0 | 321 ± 35 | 156 ± 12 | 44.0 | 45.0 | 205 ± 28 | 80 ± 9 | 69.4 | 78.2 | 174 ± 26 | 88 ± 7 | 76.1 | 74.7 | 
CO[C@H]1[C@H](O)[C@@H](O)[C@@H](O)[C@H](O)[C@@H]1O [Pinitol, pinitol] | 96 | 16.38 ± 2.43 | 95.8 | 298 ± 28 | 134 ± 7 | 49.7 | 54.6 | 188 ± 22 | 92 ± 5 | 73.4 | 72.9 | 192 ± 17 | 75 ± 4 | 72.6 | 80.3 | Serum GOT After administration [3]: 31.4 ± 3.0 IU/L; Serum GPT After administration [3]: 43.2 ± 8.1 IU/L; Serum γ-GTP After administration [3]: 82.6 ± 17.5 IU/L; Serum GOT Degree of decrease (%) ([3]; vs before administration): 45.3%; Serum GPT Degree of decrease (%) ([3]; vs before administration): 51.8%; Serum γ-GTP Degree of decrease (%) ([3]; vs before administration): 41.1%; SOD activity lower than that of the control group by ([4]; 200 mg/kg): 7%; SOD activity (U/g Liver) ([4]; 200 mg/kg oral everyday for 4 days): 217 ± 74 U/g Liver; SOD activity Relative Value (%) ([4]; 200 mg/kg): 93%; SOD activity higher than that of the control group by ([4]; 300 mg/kg): 24%; SOD activity (U/g Liver) ([4]; 300 mg/kg oral everyday for 4 days): 289 ± 45 U/g Liver; SOD activity Relative Value (%) ([4]; 300 mg/kg): 124%; Effect on SOD activity in the liver ([4]; 300 mg/kg, p<0.05): raises SOD activity in the liver; SOD activity higher than that of the control group by ([4]; 500 mg/kg): 44%; SOD activity (U/g Liver) ([4]; 500 mg/kg oral everyday for 4 days): 335 ± 52 U/g Liver; SOD activity Relative Value (%) ([4]; 500 mg/kg): 144%; SOD activity higher than that of the control group by ([4]; 1000 mg/kg): 35%; SOD activity (U/g Liver) ([4]; 1000 mg/kg oral everyday for 4 days): 315 ± 38 U/g Liver; SOD activity Relative Value (%) ([4]; 1000 mg/kg): 135%; Autopsy, pathological abnormality of internal organs [5]: did not develop any pathological abnormality
